Experimental data published in ChEMBL document CHEMBL1201862, “PubChem BioAssay data set” (2004).
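Interpolation was linear, between the two tested concentrations surrounding the appropriate level; five concentrations were tested over 48 hours in 96-well plates. GI50 marks 50% less growth.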 Activity calls are given as the source filed them. Rule as the data show it: active = GI50 up to about 1.1 µM and inactive = higher.

Columns and labels:
Assay in all cases: growth of human tumour cells (NCI), 48 h
SNB-75 = tested on: SNB-75
HT-29 = tested on: HT-29
OVCAR-4 = tested on: OVCAR-4
SR = tested on: SR
SK-MEL-2 = tested on: SK-MEL-2
NCI-H226 = tested on: NCI-H226
M14 = tested on: M14
SK-MEL-28 = tested on: SK-MEL-28
SK-OV-3 = tested on: SK-OV-3
OVCAR-5 = tested on: OVCAR-5
TK-10 = tested on: TK-10
OVCAR-3 = tested on: OVCAR-3
ACHN = tested on: ACHN
HCT-15 = tested on: HCT-15
SF-539 = tested on: SF-539
CAKI-1 = tested on: CAKI-1
NCI-H522 = tested on: NCI-H522
MCF7 = tested on: MCF7
NCI-H23 = tested on: NCI-H23
MDA-N = tested on: MDA-N

Row | Structure (SMILES) | GI50 (SNB-75) | GI50 (HT-29) | GI50 (OVCAR-4) | GI50 (SR) | GI50 (SK-MEL-2) | GI50 (NCI-H226) | GI50 (M14) | GI50 (SK-MEL-28) | GI50 (SK-OV-3) | GI50 (OVCAR-5) | GI50 (TK-10) | GI50 (OVCAR-3) | GI50 (ACHN) | GI50 (HCT-15) [µM] | GI50 (SF-539) | GI50 (CAKI-1) | GI50 (NCI-H522) | GI50 (MCF7) | GI50 (NCI-H23) | GI50 (MDA-N)
1 | Cc1ccc(S(=O)(=O)OCCn2cnc3nc(NC(=O)c4ccccc4)[nH]c(=O)c32)cc1 | > 100 µM (inactive) | > 100 µM (inactive) | > 100 µM (inactive) | > 100 µM (inactive) | > 100 µM (inactive) | > 100 µM (inactive) | > 100 µM (inactive) | > 100 µM (inactive) | > 100 µM (inactive) | > 100 µM (inactive) | > 100 µM (inactive) | > 100 µM (inactive) | > 100 µM (inactive) | > 100 | > 100 µM (inactive) | > 100 µM (inactive) | 52.6 µM (inactive) | – | – | –
2 | Oc1cc(/C=C/c2ccccc2)nc2cc3c(cc12)OCO3 | 6.93 µM (inactive) | 2.2 µM (inactive) | 14.7 µM (inactive) | – | 3.72 µM (inactive) | – | 5.25 µM (inactive) | 8.65 µM (inactive) | 4.63 µM (inactive) | 3.54 µM (inactive) | 10.7 µM (inactive) | – | 10.9 µM (inactive) | 3.01 | 2.08 µM (inactive) | – | – | 4.85 µM (inactive) | 3.26 µM (inactive) | 2.03 µM (inactive)
3 | O=C1c2ccccc2C2C1N2C(=O)C(F)(F)F (stereo not given) | > 100 µM (inactive) | 74.8 µM (inactive) | > 100 µM (inactive) | 26.9 µM (inactive) | > 100 µM (inactive) | > 100 µM (inactive) | > 100 µM (inactive) | > 100 µM (inactive) | > 100 µM (inactive) | > 100 µM (inactive) | > 100 µM (inactive) | > 100 µM (inactive) | > 100 µM (inactive) | > 100 | > 100 µM (inactive) | > 100 µM (inactive) | > 100 µM (inactive) | – | > 100 µM (inactive) | –
4 | CCOC(=O)C[C@@H](C)[C@]1(C(=O)OC)CCCC1=O | > 100 µM (inactive) | > 65.8 µM (inactive) | > 100 µM (inactive) | 27.9 µM (inactive) | > 100 µM (inactive) | > 100 µM (inactive) | > 100 µM (inactive) | > 100 µM (inactive) | > 100 µM (inactive) | > 100 µM (inactive) | > 100 µM (inactive) | > 100 µM (inactive) | > 100 µM (inactive) | > 100 | > 100 µM (inactive) | > 100 µM (inactive) | > 100 µM (inactive) | – | > 71.9 µM (inactive) | –
5 | CC(=O)O/N=C/c1ncccc1OC(C)=O | > 100 µM (inactive) | > 100 µM (inactive) | > 100 µM (inactive) | > 100 µM (inactive) | > 100 µM (inactive) | > 100 µM (inactive) | > 100 µM (inactive) | > 100 µM (inactive) | > 100 µM (inactive) | > 100 µM (inactive) | > 100 µM (inactive) | > 100 µM (inactive) | > 100 µM (inactive) | > 100 | > 100 µM (inactive) | > 100 µM (inactive) | > 100 µM (inactive) | – | > 100 µM (inactive) | –
6 | O=C(Cc1ccccc1)NNc1nc(NNC(=O)c2ccncc2)nc(Nc2cccc(Cl)c2)n1 | > 10 µM (inactive) | > 10 µM (inactive) | > 10 µM (inactive) | > 10 µM (inactive) | – | – | > 10 µM (inactive) | > 10 µM (inactive) | > 10 µM (inactive) | – | > 10 µM (inactive) | – | – | > 10 | > 10 µM (inactive) | > 10 µM (inactive) | – | > 10 µM (inactive) | > 10 µM (inactive) | > 10 µM (inactive)
7 | CN(C)CCCNC(=O)c1cc(NC(=O)c2cc(NC(=O)[C@H]3C[C@@H]3C(=O)Nc3cc(C(=O)Nc4cc(C(=O)NCCCN(C)C)n(C)c4)n(C)c3)cn2C)cn1C | > 100 µM (inactive) | > 100 µM (inactive) | > 100 µM (inactive) | > 100 µM (inactive) | > 100 µM (inactive) | > 100 µM (inactive) | > 100 µM (inactive) | – | – | > 100 µM (inactive) | > 10 µM (inactive) | – | > 100 µM (inactive) | > 100 | > 100 µM (inactive) | > 100 µM (inactive) | 65 µM (inactive) | > 100 µM (inactive) | > 100 µM (inactive) | –
8 | CCNc1ccc2c(c1)C(=O)N(OS(C)(=O)=O)C2=O | – | > 100 µM (inactive) | 42 µM (inactive) | – | 65.6 µM (inactive) | 29 µM (inactive) | 42.2 µM (inactive) | 57.5 µM (inactive) | > 100 µM (inactive) | – | > 100 µM (inactive) | 40.7 µM (inactive) | 37.7 µM (inactive) | 36.1 | 22.4 µM (inactive) | 70 µM (inactive) | 16.4 µM (inactive) | 33.6 µM (inactive) | > 100 µM (inactive) | 89.7 µM (inactive)
9 | COc1cc(/C=C2\[C@H]3c4c(c(OC)c(C)c(OC)c4OC)CC(C(=O)N2Cc2ccccc2)N3C)c(OC)c(C)c1OC | 25.4 µM (inactive) | 19.1 µM (inactive) | 16.1 µM (inactive) | 21.2 µM (inactive) | > 10 µM (inactive) | 10.4 µM (inactive) | 18.1 µM (inactive) | 25.4 µM (inactive) | 29.5 µM (inactive) | 20.6 µM (inactive) | 33.5 µM (inactive) | 16.7 µM (inactive) | 26.1 µM (inactive) | – | 19.3 µM (inactive) | 30.3 µM (inactive) | 13.1 µM (inactive) | – | 34.3 µM (inactive) | –
10 | C[n+]1c(-c2ccc(/C=N/NC(=O)C(=O)N/N=C/c3ccc(-c4cn5ccccc5[n+]4C)cc3)cc2)cn2ccccc21 | > 100 µM (inactive) | > 100 µM (inactive) | > 100 µM (inactive) | – | > 100 µM (inactive) | > 100 µM (inactive) | > 100 µM (inactive) | – | > 100 µM (inactive) | > 100 µM (inactive) | 56.6 µM (inactive) | 45.9 µM (inactive) | > 100 µM (inactive) | > 100 | > 100 µM (inactive) | > 100 µM (inactive) | > 100 µM (inactive) | > 100 µM (inactive) | > 100 µM (inactive) | > 100 µM (inactive)
11 | COc1ccc(-c2c(C#N)c(-c3ccc(C)cc3)n(NS(=O)(=O)c3ccccc3)c(=O)c2C#N)cc1 | > 100 µM (inactive) | 47.5 µM (inactive) | 37.8 µM (inactive) | – | 50.8 µM (inactive) | > 100 µM (inactive) | 48.6 µM (inactive) | 48.1 µM (inactive) | 84.3 µM (inactive) | > 100 µM (inactive) | 79.8 µM (inactive) | 30.9 µM (inactive) | 45 µM (inactive) | 39.3 | 36.6 µM (inactive) | 74.1 µM (inactive) | 87.7 µM (inactive) | 28.9 µM (inactive) | – | 70.8 µM (inactive)
12 | CC(=O)OC1COC(Nc2ccc(C(C)=O)cc2)C(OC(C)=O)C1OC(C)=O (stereo not given) | > 100 µM (inactive) | > 100 µM (inactive) | > 100 µM (inactive) | > 100 µM (inactive) | > 100 µM (inactive) | > 100 µM (inactive) | > 100 µM (inactive) | > 100 µM (inactive) | > 100 µM (inactive) | – | > 100 µM (inactive) | > 100 µM (inactive) | > 100 µM (inactive) | > 100 | > 100 µM (inactive) | > 100 µM (inactive) | > 100 µM (inactive) | – | > 100 µM (inactive) | –
13 | COC1CC2C3/C(=N/Nc4ccc([N+](=O)[O-])cc4[N+](=O)[O-])CCC2(C)C3C1 (stereo not given) | > 10 µM (inactive) | > 10 µM (inactive) | > 10 µM (inactive) | 37.1 µM (inactive) | > 10 µM (inactive) | > 10 µM (inactive) | > 10 µM (inactive) | > 100 µM (inactive) | > 10 µM (inactive) | > 10 µM (inactive) | > 100 µM (inactive) | > 10 µM (inactive) | > 10 µM (inactive) | > 100 | > 10 µM (inactive) | > 10 µM (inactive) | > 10 µM (inactive) | – | > 10 µM (inactive) | –
14 | NCCCNC(=O)c1csc(NC(=O)c2csc(NC(=O)CCCN)n2)n1 | > 100 µM (inactive) | > 100 µM (inactive) | 18.7 µM (inactive) | > 100 µM (inactive) | > 100 µM (inactive) | > 100 µM (inactive) | > 100 µM (inactive) | > 100 µM (inactive) | > 100 µM (inactive) | > 100 µM (inactive) | > 100 µM (inactive) | > 100 µM (inactive) | > 100 µM (inactive) | > 100 | > 100 µM (inactive) | > 100 µM (inactive) | > 100 µM (inactive) | – | > 100 µM (inactive) | –
15 | CCOC(OC1=CCCC1)C(C)[Se]c1ccccc1 (stereo not given) | 39.3 µM (inactive) | 23.3 µM (inactive) | 44.2 µM (inactive) | 14.2 µM (inactive) | 48.4 µM (inactive) | 36.1 µM (inactive) | 36.4 µM (inactive) | 42.1 µM (inactive) | > 100 µM (inactive) | 28.9 µM (inactive) | > 100 µM (inactive) | 34.5 µM (inactive) | 61.8 µM (inactive) | 16.8 | 23.8 µM (inactive) | 65.8 µM (inactive) | 17.9 µM (inactive) | – | 26.9 µM (inactive) | –
16 | O=[N+]([O-])c1ccc(CSC2=C(c3ccc(Cl)cc3)S/C(=C3\SC(SCc4ccc([N+](=O)[O-])cc4)=C(c4ccc(Cl)cc4)S3)S2)cc1 | – | > 100 µM (inactive) | > 100 µM (inactive) | – | > 100 µM (inactive) | > 100 µM (inactive) | > 100 µM (inactive) | > 100 µM (inactive) | > 100 µM (inactive) | > 100 µM (inactive) | > 100 µM (inactive) | > 100 µM (inactive) | > 100 µM (inactive) | > 100 | > 100 µM (inactive) | > 100 µM (inactive) | > 100 µM (inactive) | > 100 µM (inactive) | > 100 µM (inactive) | > 100 µM (inactive)
